Measured values as given in publication PMC3906536, “The cyclic AMP phosphodiesterase RegA critically regulates encystation in social and pathogenic amoebas^” (Cellular Signalling, 2014).

Target: T1, Acas RegA (cAMP phosphodiesterase RegA) (Acanthamoeba castellanii, UniProt L7WMY9)
T1 construct: 621 aa protein from full cDNA, N-terminal hexahis-tag, expressed in E. coli
Experiment: inhibition of 3H-cAMP hydrolysis by purified RegA
Assay type: biochemical

T1 sequence (L7WMY9 entry or part of it): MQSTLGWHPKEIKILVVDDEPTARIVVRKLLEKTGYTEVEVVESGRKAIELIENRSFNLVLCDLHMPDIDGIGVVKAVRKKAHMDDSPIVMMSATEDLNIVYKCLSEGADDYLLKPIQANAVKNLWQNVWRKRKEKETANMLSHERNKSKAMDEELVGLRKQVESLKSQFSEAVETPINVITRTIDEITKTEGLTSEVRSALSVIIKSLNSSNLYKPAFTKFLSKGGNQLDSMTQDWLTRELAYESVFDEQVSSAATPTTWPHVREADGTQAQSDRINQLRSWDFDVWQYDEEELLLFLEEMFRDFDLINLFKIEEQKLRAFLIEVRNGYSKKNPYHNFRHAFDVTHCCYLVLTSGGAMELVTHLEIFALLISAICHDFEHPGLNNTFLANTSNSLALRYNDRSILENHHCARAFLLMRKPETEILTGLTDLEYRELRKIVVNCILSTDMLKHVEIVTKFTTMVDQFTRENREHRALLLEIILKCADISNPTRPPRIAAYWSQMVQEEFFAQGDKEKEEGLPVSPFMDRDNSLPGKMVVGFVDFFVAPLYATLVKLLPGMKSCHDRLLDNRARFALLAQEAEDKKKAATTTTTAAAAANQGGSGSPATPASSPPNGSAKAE

SMILES | IC50 [µM]
OCCN(CCO)c1nc(N2CCCCC2)c2nc(N(CCO)CCO)nc(N3CCCCC3)c2n1 [dipyridamole] | 12
Clc1cccc(Nc2nnc(-c3ccccc3)c3ccccc23)c1 [MY-5445] | 400
COc1cc2c(cc1OC)-c1c/c(=N\c3c(C)cc(C)cc3C)n(C)c(=O)n1CC2 [trequinsin] | 30
